Tests used:
[1] = tested on: human pleural mesothelioma cells NCI-H226; assay: Cell anti-proliferation experiment (CCK8), NCI-H226; assay type: cell-based
Excerpt: TEST EXAMPLE 1 CELL ANTI-PROLIFERATION EXPERIMENT
Determination of proliferation inhibition of YAP-TEAD inhibitor compounds on human pleural mesothelioma cells NCI-H226
Experimental materials and equipments: Human pleural mesothelioma cells NCI-H226 was purchased from NANJING COBIOER BIOSCIENCES CO., LTD. RPMI-1640 medium (Bio-Channel), DMSO (dimethyl sulfoxide), CCK8 (WST-8) Cell Assay Kit (Beyotime), 0.25% EDTA-Tripsin (trypsin digest), 1×PBS (phosphate buffer, PH7.2), 96-well plate (Corning), fetal bovine serum (FBS), 10,000 U/mL penicillin-G/streptomycin, high-speed freezing centrifuge (EPPENDORF 5810R), enzyme-linked immunosorbent assay (Tecan Spark).
1. Cell plating • A) Tumor cells were cultured to 80-90% density in RPMI-1640 (containing 10% FBS and 100 U/mL penicillin-G/streptomycin) under the condition of 37° C., 5% CO2 and saturated humidity. • B) The culture medium was removed from the 10 cm culture dish. • C) Cells were washed with 10 ml 1×PBS. • D) 4 ml of 0.25% EDTA-Tripsin was added to digest pancreatin for 5 minutes in an incubator at 37° C. and 5% CO2. Then the mixture was transferred to a 15 ml centrifuge tube, and centrifuged for 5 minutes at 200 g. The supernatant was discarded to obtain cell precipitation. • E) The cell precipitation was resuspended with 4 ml of […], counted and adjusted to 10,000 cells/ml. • F) The cell suspension was added to a 96-well plate with a volume of 100 μL per well and cultured overnight in an incubator at 37° C. and 5% CO2.
• Compound dilution • A) Preparation of gradient dilution solutions of the tested compounds: the tested compounds was configured to 1 mM stock solution. Then […] of stock solution was dissolved in 1.5 ml of DMSO-free culture solution, and then 3-fold continuous gradient dilution with 0.1% DMSO culture solution was performed to get a total of 9 concentrations. The diluted concentrations of the compound were as follows: 333.33 nM, 111.11 nM, 37.03 nM, 12.35 nM, 4.15 nM, 1.37 nM, 0.46 nM, 0.15 nM • B) After full mixing, 100 μL of culture compound solution was taken to replace the culture solution in the cell culture plate, with 4 duplicated wells at each concentration; • C) The cells were transferred to the incubator to incubate for 3 days.
• A) the cell culture plate was taken out and added with 10 μl of CCK-8 (WST-8) solution per well in the biosafety cabinet; • B) The cell culture plate was put back into the incubator and continued to incubate for 3 hours; • C) 450 nm wavelength was selected to measure absorbance value on TECAN enzyme linked immunosorbent assay detector.
The following formula was used to calculate the cell viability (% Cell Viability); • Cell Viability (%)=[A(Drug-added)-A(Blank)]/[A(0 Drug-added)-A(blank)][…] • A (Drug-added): The absorbance of wells containing cells, CCK8 solution, and drug solution. • A (Blank): The absorbance of wells containing culture medium and CCK8 solution, but without cells. • A (0 Drug-added): The absorbance of wells containing cells, CCK8 solution, but without drug solution. • Cell viability: Cell proliferation viability or cytotoxicity viability was determined by the IC50 value obtained by curve fitting using GraphPad Prism 8 software.

YAP-TEAD = YAP-TEAD inhibitor activity by Nano luciferase method (8xGTiiC-nLuc reporter in 293T cells); assay type: cell-based; details: Homo sapiens, HEK-293T, 48 hours incubation, read-out: Nano-luciferase detection (IC50)
Excerpt: EXAMPLE 2: YAP-TEAD INHIBITOR ACTIVITY WAS DETECTED BY NANO LUCIFERASE METHOD
(1) Experimental materials and equipments: 293T cells were purchased from NANJING COBIOER BIOSCIENCES CO., LTD. DMEM medium (High sugar, no phenol red, Bio-Channel), DMSO (dimethyl sulfoxide), Lipo6000™ transfection reagent (Beyotime), pGL3B-8xGTiiC-nLuc-CMV-fLuc plasmid, 0.25% EDTA-Tripsin (trypsin digest), 1×PBS (phosphate buffer, PH7.2), 96-well white cell culture plate (PerkinElmer), fetal bovine serum (FBS), 10,000 U/mL penicillin-G/streptomycin, high-speed freezing centrifuge (EPPENDORF 5810R), 37° C. CO2 incubator, Vi-cell® Cell Counter, Envision Microplate Reader (PerkinElmer).
The revived 293T cells were inoculated into a 10 cm culture dish and placed in an incubator with 5% CO2, and cultured at constant temperature of 37° C. To ensure transfection efficiency, cells at logarithmic phase (cell density of approximately 50%-70%) should be used.
On the day before transfection, cells at the logarithmic phase were digested with Trypsin-EDTA, and culture medium was added to terminate digestion. The cell suspension was prepared by blowing and mixing using a pipette.
Cell concentration was measured using Vi-cell, and the cell suspension was diluted to a suspension of 5*10^^5 cells per milliliter. After preparing the cell suspension, the suspension was gently mixed. 10 ml of liquid was added to a 10 cm culture dish. In this way, the number of cells in each 10 cm culture dish was 5*10^^6. The cells were incubated at a constant temperature of 37° C. for 1 day in an incubator with 5% CO2.
Two clean and sterile centrifuge tubes were taken and added with 750 μL opti-MEM Medium without antibiotics and serum, respectively. Then one tube was added with 15 μg Plasmid (pGL3B-8xGTiiC-nLuc-CMV-fLuc), and gently blew and mixed well using a pipette; the other tube was added with Lipo6000 transfection reagent, and gently blew and mixed using a pipette. After standing at room temperature for 5 minutes, the culture solution containing DNA was added gently to the culture solution containing Lipo6000 transfection reagent, and mixed well by gently inverting the centrifuge tube, then standing at room temperature for 5 minutes.
The above mixture was added evenly to a 10 cm culture dish and replaced with fresh complete culture medium after 6 hours of cultivation.
After transfection for 1 day, cells were digested with Trypsin EDTA, and culture medium was added to terminate the digestion. The cell suspension was prepared by blowing and mixing using a pipette.
Cell concentration was measured using Vi-cell, and the cell suspension was diluted to a suspension of 20000 cells per milliliter.
After preparing the cell suspension, the suspension was gently mixed, and added to 96-well plate with 100 μL per well. Thus, the density of the cells to be tested is 2000 cells per well.
The inoculated cell culture plate was placed in the incubator for cultivation, and after about 24 hour, compounds with concentration gradient were added.
10 mM compound stock solution was diluted with culture medium to 50 μM. Compound solution of 50 μM was added to the third column of the deep well plate, 216 μL of culture medium containing 0.5% DMSO was added to the fourth to eleventh columns, successively.
Gradient dilution: taking 100 μL of solution from the third column and adding the solution to the fourth column and mixing well; then taking 100 µL of solution from the fourth column again and adding the solution to the fifth column, repeating this operation until the eleventh column.
Taking 25 μL of compound solution from the deep well plate and adding it to a 96-well culture plate using a multi-channel pipette. Repeating four times on the 96 well plate for each compound. Finally, a concentration gradient of 1:3.16 was formed in the 96-well plate with a maximum concentration of 10,000 nM. The • (5) Addition of Nano Luciferase Detection Reagent and Read […]

SMILES	IC50 [1]	IC50 (YAP-TEAD)
O=C(O)c1ccc2c(ccc(=O)n2-c2ccc(C(F)(F)F)cc2)c1 [Example T-1]	1000 to 5000 nM	1000 to 5000 nM
CC(C)NC(=O)c1ccc2c(ccc(=O)n2-c2ccc(C(F)(F)F)cc2)c1 [Example T-3]	≤ 1000 nM	≤ 1000 nM
CC(C)(C)OC(=O)c1ccc2c(c1)c(=O)ccn2-c1ccc(C(F)(F)F)cc1 [Example T-4]	–	1000 to 5000 nM
O=C(O)c1ccc2c(c1)c(=O)ccn2-c1ccc(C(F)(F)F)cc1 [Example T-5]	1000 to 5000 nM	≤ 1000 nM
CC(C)NC(=O)c1ccc2c(c1)c(=O)ccn2-c1ccc(C(F)(F)F)cc1 [Example T-6]	≤ 1000 nM	≤ 1000 nM
CNS(=O)(=O)c1ccc2c(c1)-c1ncn(C)c1CN2c1ccc(C(F)(F)F)cc1 [Example T-7]	≤ 1000 nM	≤ 1000 nM
CNS(=O)(=O)c1ccc2c(c1)c1ncn(C)c1c(=O)n2-c1ccc(C(F)(F)F)cc1 [Example T-15]	≤ 1000 nM	≤ 1000 nM
COC[C@H](C)NC(=O)c1ccc2c(c1)-c1ncn(C)c1CN2c1ccc(C(F)(F)F)cc1 [Example T-16]	≤ 1000 nM	≤ 1000 nM
C[C@H](NC(=O)c1ccc2c(c1)c(=O)ccn2-c1ccc(C(F)(F)F)cc1)c1ccccn1 [Example T-17]	1000 to 5000 nM	≤ 1000 nM
CNS(=O)(=O)c1ccc2c(c1)-c1nn(C)cc1CN2c1ccc(C(F)(F)F)cc1 [Example T-18]	≤ 1000 nM	≤ 1000 nM
CNS(=O)(=O)c1ccc2c(c1)-c1cn(C)nc1CN2c1ccc(C(F)(F)F)cc1 [Example T-19]	≤ 1000 nM	≤ 1000 nM
CNS(=O)(=O)c1ccc2c(c1)c1ncn(CCOC)c1c(=O)n2-c1ccc(C(F)(F)F)cc1 [Example T-20]	≤ 1000 nM	≤ 1000 nM
COC[C@@H](C)NC(=O)c1ccc2c(c1)c(=O)ccn2-c1ccc(C(F)(F)F)cc1 [Example T-36]	–	1000 to 5000 nM
O=C(c1ccc2c(c1)c(=O)ccn2-c1ccc(C(F)(F)F)cc1)N1CC(O)C1 [Example T-37]	–	1000 to 5000 nM
Cn1cc2c(=O)n(-c3ccc(C(F)(F)F)cc3)c3ccc(C(=O)N4CC(O)C4)cc3c2n1 [Example T-103]	1000 to 5000 nM	–
Cn1cc2c(=O)n(-c3ccc(C(F)(F)F)cc3)c3ccc(C(=O)N4CC(C#N)C4)cc3c2n1 [Example T-104]	1000 to 5000 nM	–
C[C@@H](NC(=O)c1ccc2c(c1)c1nn(C)cc1c(=O)n2-c1ccc(C(F)(F)F)cc1)c1ccccn1 [Example T-106]	1000 to 5000 nM	–
CN(C)C(=O)c1ccc2c(c1)c1nn(C)cc1c(=O)n2-c1ccc(C(F)(F)F)cc1 [Example T-112]	1000 to 5000 nM	–
COC[C@@H](C)NC(=O)c1ccc2c(c1)c1nn(C)cc1c(=O)n2-c1ccc(C(F)(F)F)cc1 [Example T-119]	1000 to 5000 nM	–
C[C@H](NC(=O)c1ccc2c(c1)c1nn(C)cc1c(=O)n2-c1ccc(C(F)(F)F)cc1)c1ccncc1 [Example T-147]	1000 to 5000 nM	–
C[C@H](NC(=O)c1ccc2c(c1)c1c(c(=O)n2-c2ccc(C(F)(F)F)cc2)CC(F)CC1)c1ccccn1 (stereo partly drawn) [Example T-304]	–	≤ 1000 nM
C[C@H](NC(=O)c1ccc2c(c1)c1c(c(=O)n2-c2ccc(C(F)(F)F)cc2)C(F)CCC1)c1ccccn1 (stereo partly drawn) [Example T-305]	–	≤ 1000 nM
C[C@H](NC(=O)c1ccc2c(c1)c1c(c(=O)n2-c2ccc(C(F)(F)F)cc2)CC(F)(F)CC1)c1ccccn1 [Example T-308]	–	≤ 1000 nM
C[C@H](NC(=O)c1ccc2c(c1)c1c(c(=O)n2-c2ccc(C(F)(F)F)cc2)C(F)(F)CCC1)c1ccccn1 [Example T-309]	–	≤ 1000 nM
CC1OCc2c1c(=O)n(-c1ccc(C(F)(F)F)cc1)c1ncc(C(=O)N[C@@H](C)c3ccccn3)cc21 (stereo partly drawn) [Example T-438]	–	1000 to 5000 nM
CCS(=O)(=O)Nc1ccc2c(c1)c(C)cc(=O)n2-c1ccc(C(F)(F)F)cc1 [Example T-442]	–	≤ 1000 nM
CC(=O)Nc1ccc2c(c1)c(C)cc(=O)n2-c1ccc(C(F)(F)F)cc1 [Example T-444]	–	1000 to 5000 nM
Cc1cc2cc(C(=O)N[C@@H](C)c3cccc(N)n3)cnc2n(-c2ccc(C(F)(F)F)cc2)c1=O [Example T-461]	–	≤ 1000 nM
